Marks after values point to notes of the source that are not given here.
Key:
[1] = Oral pharmacokinetics and excretion in rats; type: in vivo, rat
Text: Accordingly, the SGLT1 inhibitor compounds of Formula I or Formula II are locally acting in the gut, and have poor systemic exposure. […] Systemic exposure (e.g., Cmax) can be measured by methods well known in the art, including liquid chromatography mass spectrometry.

[2] = test system: STZ-induced diabetic rats; assay: OGTT in STZ-induced diabetic rats (Example 8); type: in vivo, rat; settings: for Plasma glucose 0 hr: before dosing; for Plasma glucose 0 hr / Plasma glucose 0.5 hr / Plasma glucose 1 hr / Plasma glucose 2 hr / Plasma glucose 3 hr / ΔAUC (0-1) / ΔAUC (0-1) (% of Control): glucose 2 g/kg, mean ± S.E.M.
Procedure: Study in diabetic rats with glucose. Diabetic rats, induced by intravenous injection of streptozotocin (STZ; 40 mg/kg), were used to determining plasma glucose concentration (PG) 1 hr after oral glucose tolerance test (OGTT). […] Blood was collected via the caudal artery immediately before dosing and 0.5, 1, 2, and 3 hr after dosing. The glucose concentration measurement in plasma used Glucose CII-Test Wako kit (Wako Pure Chemicals Industries, Ltd., Osaka, Japan). The variables used for efficacy assessment were the measurement values of the plasma glucose concentration and the area under the curve for plasma glucose concentration through 1 hr after loading (ΔAUC0-1 hr). The ΔAUC0-1 hr for plasma glucose was calculated based on the trapezoid method using the change of plasma glucose concentrations from pre-value (0 hr).

[3] = test system: STZ-induced diabetic rats; assay: Mixed carbohydrate tolerance test in STZ-induced diabetic rats (Example 3); type: in vivo, rat
Procedure: Study in diabetic rats. Mizagliflozin was tested in a rat model for diabetes and efficacy, as measured by a relative decrease in plasma glucose, was determined using a mixed carbohydrate tolerance test. Diabetic model rats were prepared by intravenous administration of streptozotocin (STZ) to induce diabetes. Seven days after STZ administration, rats were fasted for 16 hours and then given an oral loading dose of 2.0 g/kg of mixed carbohydrate (soluble starch:sucrose:lactose monohydrate=6:3:1). Mizagliflozin, or water as the vehicle control, was then administered as a single oral dose to groups of male rats (n=8/group) at doses of 0.01, 0.03, 0.1, and 0.3 mg/kg. Another control group was given vehicle and consisted of normal male Sprague Dawley rats that were not administered STZ. Voglibose was also administered as a single oral dose to male rats (n=8/group) at dose levels of 0.03, 0.1 and 0.3 mg/kg. Blood samples were collected just prior to loading with mixed carbohydrate and at 0.5, 1, 2, 3, 4, and 6 hours after loading. Plasma glucose concentrations were determined and ΔAUC0-1 h for plasma glucose was calculated.

rat SGLT2 = biological target: T1, rat SGLT2 (Rattus norvegicus, UniProt P53792); assay: Inhibition of radiolabeled α-MG uptake into COS-7 cells transfected with rat SGLT2 (Dixon plot); type: cell-based; settings: α-MG 0.3 and 1 mM
T1 construct: expressed in transfected cells; host or cells: COS-7
T1 sequence (P53792 1-670): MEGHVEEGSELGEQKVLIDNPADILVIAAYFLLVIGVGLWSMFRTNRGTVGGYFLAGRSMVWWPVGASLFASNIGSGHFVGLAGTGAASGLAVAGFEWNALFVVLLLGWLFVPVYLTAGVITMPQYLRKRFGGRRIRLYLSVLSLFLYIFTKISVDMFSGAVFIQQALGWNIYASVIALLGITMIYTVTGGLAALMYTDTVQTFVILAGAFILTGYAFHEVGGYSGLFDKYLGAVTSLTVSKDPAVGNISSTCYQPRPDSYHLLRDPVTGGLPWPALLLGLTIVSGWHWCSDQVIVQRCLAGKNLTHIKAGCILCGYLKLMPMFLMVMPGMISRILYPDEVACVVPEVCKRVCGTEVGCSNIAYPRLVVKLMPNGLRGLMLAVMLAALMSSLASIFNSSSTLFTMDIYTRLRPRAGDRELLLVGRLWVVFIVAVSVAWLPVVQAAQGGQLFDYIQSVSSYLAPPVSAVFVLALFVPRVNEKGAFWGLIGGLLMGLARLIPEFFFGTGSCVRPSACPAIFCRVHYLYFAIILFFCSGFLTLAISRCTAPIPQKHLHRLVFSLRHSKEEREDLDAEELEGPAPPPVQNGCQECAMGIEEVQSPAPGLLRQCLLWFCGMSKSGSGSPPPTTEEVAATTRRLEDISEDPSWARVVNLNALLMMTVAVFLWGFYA
Procedure: (§1) Selective inhibition study. Inhibition constants (Ki) of mizagliflozin for rat and human SGLT1 and SGLT2 were determined measuring concentration-dependent effects of test compound on uptake of radiolabeled methyl-α-D-glucopyranoside (α-MG) into COS-7 cells transiently transfected with cloned SGLT1 or SGLT2. Mizagliflozin was assessed at concentrations from 1 to 30 μM and 3 to 100 μM for human and rat SGLT2, respectively. It was assessed at concentrations from 30 nM to 1 μM and 10 to 30 nM for human and rat SGLT1, respectively. α-MG test concentrations were 0.3 and 1 mM. Data were analyzed and Ki determined using Dixon plots of initial transport rates. […] Inhibition constants were also determined for human SGLT1 and SGLT2.

human SGLT2 = biological target: T2, human SGLT2 (Homo sapiens, UniProt P31639); assay: Inhibition of radiolabeled α-MG uptake into COS-7 cells transfected with human SGLT2 (Dixon plot); type: cell-based; settings: α-MG 0.3 and 1 mM, read-out: inhibition constant for human SGLT2
T2 construct: expressed in transfected cells; host or cells: COS-7
T2 sequence (P31639 1-672): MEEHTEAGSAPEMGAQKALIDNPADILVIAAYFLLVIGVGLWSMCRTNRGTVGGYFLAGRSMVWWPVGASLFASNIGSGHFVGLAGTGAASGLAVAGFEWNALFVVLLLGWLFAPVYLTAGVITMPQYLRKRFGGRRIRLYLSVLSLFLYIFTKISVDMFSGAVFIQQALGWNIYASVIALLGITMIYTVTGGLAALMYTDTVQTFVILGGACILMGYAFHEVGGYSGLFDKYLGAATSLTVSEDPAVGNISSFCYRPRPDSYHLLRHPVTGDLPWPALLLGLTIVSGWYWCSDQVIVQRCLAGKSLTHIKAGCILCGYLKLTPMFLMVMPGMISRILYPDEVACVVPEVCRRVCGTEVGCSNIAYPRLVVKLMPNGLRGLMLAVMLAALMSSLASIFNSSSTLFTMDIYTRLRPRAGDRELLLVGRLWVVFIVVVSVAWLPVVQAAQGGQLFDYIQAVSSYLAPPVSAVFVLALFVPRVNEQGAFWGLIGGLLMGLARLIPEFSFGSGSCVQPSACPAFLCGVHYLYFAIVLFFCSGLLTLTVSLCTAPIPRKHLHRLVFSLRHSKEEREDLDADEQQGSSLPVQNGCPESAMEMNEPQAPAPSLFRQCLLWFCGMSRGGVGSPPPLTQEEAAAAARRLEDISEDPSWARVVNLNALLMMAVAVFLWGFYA
Procedure: as §1

Cc1cc(OCCCNCC(C)(C)C(N)=O)ccc1Cc1c(O[C@@H]2O[C@H](CO)[C@@H](O)[C@H](O)[C@H]2O)n[nH]c1C(C)C [mizagliflozin, 3-(3-{4-[3-(β-D-glucopyranosyloxy)-5-isopropyl-1H-pyrazol-4-ylmethyl-]-3-methylphenoxy}propylamino)-2,2-dimethylpropionamide]
bioavailability ([1]; male, rat, plasma, po): 0.01 to 0.08%
Cmax and AUCt versus dose ([1]; oral 3, 10 and 30 mg/kg, fasted male rats): increased with dose, but not in a clear dose proportional manner
excreted in the feces ([1]; rats, oral dosing): > 97 % of orally administered dose
Plasma glucose 0 hr ([2]; 0.03 mg/kg oral): 128 ± 10 mg/dL
Plasma glucose 0.5 hr ([2]; 0.03 mg/kg oral): 356 ± 25 mg/dL
Plasma glucose 1 hr ([2]; 0.03 mg/kg oral): 371 ± 33 mg/dL
Plasma glucose 2 hr ([2]; 0.03 mg/kg oral): 172 ± 29 mg/dL
Plasma glucose 3 hr ([2]; 0.03 mg/kg oral): 91 ± 12 mg/dL
ΔAUC (0-1) ([2]; 0.03 mg/kg oral): 174 ± 17 mg·h/dL
ΔAUC (0-1) (% of Control) ([2]; 0.03 mg/kg oral): 90 ± 9 % of Control
Plasma glucose 0 hr ([2]; 0.1 mg/kg oral): 120 ± 12 mg/dL
Plasma glucose 0.5 hr ([2]; 0.1 mg/kg oral): 262 ± 27^y mg/dL
Plasma glucose 1 hr ([2]; 0.1 mg/kg oral): 305 ± 43 mg/dL
Plasma glucose 2 hr ([2]; 0.1 mg/kg oral): 238 ± 53 mg/dL
Plasma glucose 3 hr ([2]; 0.1 mg/kg oral): 137 ± 26 mg/dL
ΔAUC (0-1) ([2]; 0.1 mg/kg oral): 117 ± 18^x mg · dL^−1 · hr
ΔAUC (0-1) (% of Control) ([2]; 0.1 mg/kg oral): 60 ± 9^x % of Control
PG elevation after glucose administration ([2]; 0.03 and 0.1 mg/kg oral, OGTT 2 g/kg): inhibited PG elevation after glucose administration dose dependently
ED50 ([3]; Rattus norvegicus, read-out: ED50 calculated from mean ΔAUC0-1 h (% of control), mixed carbohydrate 2.0 g/kg, single oral dose): 0.096 mg/kg
ΔAUC0-1 h of plasma glucose versus vehicle control ([3]; mixed carbohydrate 2.0 g/kg): significantly lowered
Ki (rat SGLT2): 14 µM
Ki (human SGLT2): 8.17 µM

Reference: patent publication US11596644B2, “Method for treating post-prandial hypoglycemia” (AVOLYNT, priority 2018, dated 2023)
